Key:
human SLC6A19 and TMEM27 [1] = biological target: T1, human SLC6A19 and TMEM27 (Homo sapiens, UniProt Q695T7); assay: Radiolabelled (3H) leucine uptake in CHO cells with doxycycline-inducible expression of human SLC6A19 and TMEM27 (Example B-1); format: cell-based; conditions: CHO cells with doxycycline-inducible expression of human SLC6A19 and TMEM27, read-out: SLC6A19_Radioligand Uptake Assay IC50
T1 construct: expressed in transfected cells
T1 sequence (Q695T7 1-634): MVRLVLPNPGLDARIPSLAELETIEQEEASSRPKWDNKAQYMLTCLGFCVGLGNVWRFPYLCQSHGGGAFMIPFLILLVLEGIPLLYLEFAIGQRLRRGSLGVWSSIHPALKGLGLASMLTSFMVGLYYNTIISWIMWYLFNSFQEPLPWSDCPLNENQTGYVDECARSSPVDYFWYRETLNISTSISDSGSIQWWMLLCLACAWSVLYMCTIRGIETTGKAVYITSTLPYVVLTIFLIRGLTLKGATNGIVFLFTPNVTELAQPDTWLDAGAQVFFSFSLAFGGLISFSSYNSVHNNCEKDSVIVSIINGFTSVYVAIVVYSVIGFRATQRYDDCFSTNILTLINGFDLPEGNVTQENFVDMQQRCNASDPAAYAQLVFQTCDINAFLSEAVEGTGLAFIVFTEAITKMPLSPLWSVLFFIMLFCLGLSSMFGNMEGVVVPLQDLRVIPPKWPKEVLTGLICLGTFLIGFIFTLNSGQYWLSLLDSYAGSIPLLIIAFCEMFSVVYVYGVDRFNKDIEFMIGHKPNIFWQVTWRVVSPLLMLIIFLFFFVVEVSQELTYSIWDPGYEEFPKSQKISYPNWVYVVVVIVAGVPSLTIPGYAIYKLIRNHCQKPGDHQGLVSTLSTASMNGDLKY
T1 sequence (Q9HBJ8 15-222 partner): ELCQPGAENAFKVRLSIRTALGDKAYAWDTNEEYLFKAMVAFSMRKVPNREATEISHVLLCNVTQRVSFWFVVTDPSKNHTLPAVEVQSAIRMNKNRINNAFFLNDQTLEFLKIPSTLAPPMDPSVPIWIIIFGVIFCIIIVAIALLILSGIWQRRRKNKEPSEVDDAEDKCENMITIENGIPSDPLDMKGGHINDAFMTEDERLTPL
Summary of the method: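 CHO cells were induced with doxycycline for 18 h at 37 °C, washed in HBSS, then exposed to compounds for 1 h: 8-point, 3-fold dilutions in duplicate, 0.5% DMSO final. Uptake measured by scintillation counting after 2 h shaking. Activity normalized with positive control as 0% and DMSO as 100%.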

human SLC6A19 and TMEM27 [2] = biological target: T1, human SLC6A19 and TMEM27; assay: 13C6,15N-isoleucine uptake in CHO cells with doxycycline-inducible expression of human SLC6A19 and TMEM27, RapidFire mass spectrometry (Example B-2); format: cell-based; conditions: read-out: SLC6A19_RapidFire Uptake Assay IC50
Summary of the method: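 CHO cells induced overnight with doxycycline to express human SLC6A19 plus TMEM27; 20 min preincubation with compound (10-point 2-fold series, duplicate) at 37 °C in HEPES buffer pH 7.2, then 20 min with 13C6,15N-isoleucine. Intracellular label quantified by RapidFire MS against 13C-leucine standard; positive control defined 100% inhibition.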

IC50 (human SLC6A19 and TMEM27 [1]) [nM]	IC50 (human SLC6A19 and TMEM27 [2]) [nM]	Compound
104	30.9	COC(=O)NCc1cc2cc(Cl)c(OCc3cscn3)cc2[nH]1 [Compound 624, methyl ((5-chloro-6-(thiazol-4-ylmethoxy)-1H-indol-2-yl)methyl)carbamate]
> 8730	12100	CN(Cc1cn[nH]c1)C(=O)NCc1cc2ccc(OCc3ccon3)cc2[nH]1 [Compound 627, 1-((1H-pyrazol-4-yl)methyl)-3-((6-(isoxazol-3-ylmethoxy)-1H-indol-2-yl)methyl)-1-methylurea]
2670	3020	CN(Cc1cn[nH]c1)C(=O)NCc1cc2ccc(OCc3cscn3)cc2[nH]1 [Compound 628, 1-((1H-pyrazol-4-yl)methyl)-1-methyl-3-((6-(thiazol-4-ylmethoxy)-1H-indol-2-yl)methyl)urea]
156	113	COc1cc2cc(CNC(=O)C3(C)CC3)[nH]c2cc1CCc1ccon1 [Compound 630, N-((6-(2-(isoxazol-3-yl)ethyl)-5-methoxy-1H-indol-2-yl)methyl)-1-methylcyclopropane-1-carboxamide]
210	149	COc1cc2cc(CNC(=O)C3(C)CC3)[nH]c2cc1CCc1cscn1 [Compound 631, N-((5-methoxy-6-(2-(thiazol-4-yl)ethyl)-1H-indol-2-yl)methyl)-1-methylcyclopropane-1-carboxamide]
1470	> 2050	CC1(C(=O)NCc2cc3cc(Cl)c(OCc4cn5ccccc5n4)cc3[nH]2)CC1 [Compound 632, N-((5-chloro-6-(imidazo[1,2-a]pyridin-2-ylmethoxy)-1H-indol-2-yl)methyl)-1-methylcyclopropane-1-carboxamide]
404	168	CC1(C(=O)NCc2cc3cc(Cl)c(OCC4CCC4)cc3[nH]2)CC1 [Compound 634, N-((5-chloro-6-(cyclobutylmethoxy)-1H-indol-2-y1)methyl)-1-methylcyclopropane-1-carboxamide]
955	524	CC1(C(=O)NCc2cc3cc(C(F)F)c(OCc4cscn4)cc3[nH]2)CC1 [Compound 645, N-((5-(difluoromethyl)-6-(thiazol-4-ylmethoxy)-1H-indol-2-yl)methyl)-1-methylcyclopropane-1-carboxamide]
785	344	CC1(C(=O)NCc2cc3cc(CC(F)(F)F)c(OCc4cscn4)cc3[nH]2)CC1 [Compound 648, 1-methyl-N-((6-(thiazol-4-ylmethoxy)-5-(2,2,2-trifluoroethyl)-1H-indol-2-yl)methyl)cyclopropane-1-carboxamide]
326	217	CC1(C(=O)NCc2cc3cc(CC(F)(F)F)c(OCc4ccon4)cc3[nH]2)CC1 [Compound 649, N-((6-(isoxazol-3-ylmethoxy)-5-(2,2,2-trifluoroethyl)-1H-indol-2-yl)methyl)-1-methylcyclopropane-1-carboxamide]
